Results as given in ChEMBL document CHEMBL3272152, “Diester derivatives as apomorphine prodrugs” (J Med Chem, 1976).
Active and inactive are the calls of the source. The rule behind the calls is not given here.

Key:
Liver = assay: Prodrug conversion in rat liver at 0.4 mM after 60 mins; type: ADME, tissue-based; details: 1 h, 400 µM
Rattus norvegicus [1] = assay: Induction of stereotyped gnawling behavior in rat assessed as time duration at 30 umol/kg, ip relative to control; type: functional
Rattus norvegicus [2] = assay: Induction of stereotyped gnawling behavior in rat assessed as time duration at 200 umol/kg, ip relative to control; type: functional
Brain = assay: Drug uptake in ip dosed mouse brain; type: ADME, organism-based; details: in vivo
Rattus norvegicus [3] = assay: Induction of stereotyped gnawling behavior in ip dosed rat assessed as latency to peak score of stereotyped behavior; type: functional
[4] = Toxicity in ip dosed rat; type: organism-based; details: in vivo
Rattus norvegicus [5] = assay: Induction of stereotyped gnawling behavior in rat assessed as time duration of behavior administered by gastric tube; type: functional, organism-based
Rattus norvegicus [6] = assay: Induction of stereotyped gnawling behavior in rat assessed as time duration at 100 umol/kg, ip relative to control; type: functional
Rattus norvegicus [7] = assay: Induction of stereotyped gnawling behavior in ip dosed rat assessed as time duration; type: functional, organism-based
Striatum [8] = assay: Induction of cAMP production in rat corpus striatum at 10 to 100 uM; type: functional, tissue-based
Rattus norvegicus [9] = assay: Induction of turning behavior in rat at 50 to 200 umol/kg, ip; type: functional, organism-based
Striatum [10] = assay: Induction of cAMP production in rat corpus striatum at 10 to 100 uM in presence of rat liver; type: functional, tissue-based

Compound | Drug metabolism (Liver) | Time (Rattus norvegicus [1]) | Time (Rattus norvegicus [2]) | Drug uptake (Brain) | Time (Rattus norvegicus [3]) | MTD [4] | Activity (Rattus norvegicus [5]) | Time (Rattus norvegicus [6]) | Activity (Rattus norvegicus [7]) | Activity (Striatum [8]) | Activity (Rattus norvegicus [9]) | Activity (Striatum [10])
CN1CCc2cccc3c2[C@H]1Cc1ccc(OC(=O)c2ccccc2)c(OC(=O)c2ccccc2)c1-3 | 9% | 3.8 h | 10.8 h | Active | 83 min | < 300 mg/kg | inactive | 6.3 h | Dose-dependent effect | inactive | Active | 
CC(=O)Oc1ccc2c(c1OC(C)=O)-c1cccc3c1[C@@H](C2)N(C)CC3 |  | 2.1 h | 2.7 h |  |  | < 300 mg/kg | inactive | 2.3 h | Active | inactive | Active | 
CN1CCc2cccc3c2[C@H]1Cc1ccc(O)c(O)c1-3.CN1CCc2cccc3c2[C@H]1Cc1ccc(O)c(O)c1-3.Cl.Cl.O [APOMORPHINE HYDROCHLORIDE] |  | 1.6 h | 2.6 h |  | 26 min | < 300 mg/kg | inactive | 1.9 h |  |  | Active | 
CCC(=O)Oc1ccc2c(c1OC(=O)CC)-c1cccc3c1[C@@H](C2)N(C)CC3.Cl |  | 1.6 h | 2.9 h |  | 41 min | < 300 mg/kg | inactive | 1.9 h | inactive | inactive | Active | 
CC(C)C(=O)Oc1ccc2c(c1OC(=O)C(C)C)-c1cccc3c1[C@@H](C2)N(C)CC3.Cl | 55% | 2.5 h | 4.9 h | Active |  | < 300 mg/kg | inactive | 3.3 h | Dose-dependent effect | inactive | Active | Active
CN1CCc2cccc3c2[C@H]1Cc1ccc(OC(=O)C(C)(C)C)c(OC(=O)C(C)(C)C)c1-3.Cl |  | 3.1 h | 7.8 h |  |  | < 300 mg/kg | inactive | 5.1 h | Dose-dependent effect | inactive | Active | 
